This is an account of results in patent US10722489B2, “D-3-phosphoglycerate dehydrogenase allosteric inhibitor and use thereof” (Peking University, priority 2016, dated 2020).

For one data set, the target named is recombinant PHGDH (Homo sapiens (Human), UniProt O43175). Briefly: In vitro enzymatic activity of PHGDH by fluorescence kinetic method. The class given is biochemical. The note with it: recombinant PHGDH 30 ng/μL, NADH fluorescence at 456 nm. On the procedure: The activity of recombinant PHGDH was measured by monitoring the reduced nicotinamideadenine dinucleotide (NADH) to nicotinamideadenine dinucleotide (NAD^+) change in fluorescence emission at 456 nm. PHGDH (final concentration of 30 ng/μL) was first pre-incubated with enzyme samples in the assay buffer (25 mM HEPES, pH 7.1, 400 mM KCl, 5 μM phosphopyridoxa (PLP), 0.5 mM α-ketoglutarate, 150 μM NADH, PSAT1) for 10 min in 96-well plate, then 10 μL of DMSO (control) or a small molecule of DMSO solution was added, shaken at 550 rpm for 5 minutes at 25° C. and balanced for 5 minutes. […] The reaction was started by adding L-phospho-O-serine (Pser) solution. The UV-visible microplate reader was used to monitor the change of NADH consumption at 456 nm with time. Protein activity was assessed by using an initial rate of reaction within 30 s, at which time NADH consumption was linear over time. The enzymatic inhibition ability of sixty-three compounds was first measured at 50 μM, compounds with percentage inhibition of PHGDH larger than 50% were selected for further studies, and IC50 values were obtained (Table 3).
recombinant PHGDH, sequence (O43175 whole entry): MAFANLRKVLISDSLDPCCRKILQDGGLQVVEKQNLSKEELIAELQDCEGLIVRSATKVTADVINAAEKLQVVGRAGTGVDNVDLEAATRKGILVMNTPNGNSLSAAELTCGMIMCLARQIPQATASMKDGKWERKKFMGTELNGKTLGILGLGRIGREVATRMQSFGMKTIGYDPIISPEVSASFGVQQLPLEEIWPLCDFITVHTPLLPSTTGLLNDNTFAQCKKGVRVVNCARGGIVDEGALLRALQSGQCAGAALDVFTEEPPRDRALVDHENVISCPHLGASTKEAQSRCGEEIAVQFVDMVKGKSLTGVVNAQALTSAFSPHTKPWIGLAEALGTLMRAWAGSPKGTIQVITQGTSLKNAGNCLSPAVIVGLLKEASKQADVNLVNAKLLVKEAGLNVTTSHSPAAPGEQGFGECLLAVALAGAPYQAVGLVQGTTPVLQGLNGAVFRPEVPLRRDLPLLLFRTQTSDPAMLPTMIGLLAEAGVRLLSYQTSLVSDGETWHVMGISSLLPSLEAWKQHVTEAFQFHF

Another data set has as its system colon cancer cell DLD-1. Briefly: MTT cell viability assay, DLD-1. The class given is cell-based. The note with it: Homo sapiens, 72 h, colon cancer cells. From the text:
(§1) The biological activities of the compounds at the cellular level were investigated. A series of cancer cells and normal mammary epithelial cells were selected, and the experimental method of MTT (3-(4,5)-dimethylthiahiazo (-z-y 1)-3,5-di-phenytetrazoliumromide) was used.
(§2) The specific method: firstly, PHGDH-sensitive breast cancer cells MDA-MB-468 (5,000 cells/well) and HCC70 (5,000 cells/well), PHGDH-insensitive breast cancer cells MCF-7 (3,000 cells/well), MDA-MB-231 (2,000 cells/well) and ZR-75-1 (4,000 cells/well), colon cancer cell DLD-1 (2,000 cells/well) and normal breast epithelial cells MCF-10A (3,000 cells/well) in the exponential growth were plated into 96-well culture plates and treated in triplicate with or without various concentrations of activated compounds from the enzymatic bioassays. They adhered to the wall over night. The compounds were added from stock solutions in DMSO and the final concentration of DMSO in the medium was 0.2%. After 72 h, 20 μL 5 mg/ml MTT was added to each well and incubated for at least 4 h. […] The number of viable cells was assessed by spectrophotometry at 570 nm, and calculated as the percentage of absorbance of treated cells relative to that of solvent controls. Results were expressed as a percentage of viable cells and the EC50 was calculated by using the Hill equation.

Data set [1] relates to PHGDH-sensitive breast cancer cells MDA-MB-468. The data set can be described thus: MTT cell viability assay, MDA-MB-468. The class given is cell-based. The note with it: Homo sapiens, 72 h.
Text: as §1, §2

Data set [2] concerns PHGDH-sensitive breast cancer cells HCC70. The data set can be described thus: MTT cell viability assay, HCC70. It is filed as cell-based. The note with it: Homo sapiens, 72 h.
Text: as §1, §2

Data set [3] deals with PHGDH-insensitive breast cancer cells MDA-MB-231. The data set can be described thus: MTT cell viability assay, MDA-MB-231. The note with it: Homo sapiens, 72 h. It is filed as cell-based.
Text: as §1, §2

For data set [4], the system named is PHGDH-insensitive breast cancer cells ZR-75-1. The data set can be described thus: MTT cell viability assay, ZR-75-1. The class given is cell-based. The note with it: Homo sapiens, 72 h.
Text: as §1, §2

Data set [5] relates to PHGDH-insensitive breast cancer cells MCF-7. Briefly: MTT cell viability assay, MCF-7. It is filed as cell-based. Conditions: Homo sapiens, MCF7, 72 h.
Text: as §1, §2

Data set [6] relates to normal breast epithelial cells MCF-10A. The data set can be described thus: MTT cell viability assay, MCF-10A. It is filed as cell-based. The note with it: Homo sapiens, 72 h.
Text: as §1, §2

For a further data set, the system named is MDA-MB-468 Cells. The data set can be described thus: Cell cycle analysis by PI staining and flow cytometry. The class given is cell-based. Conditions: MDA-MB-468, 24 h, various concentrations. The method, then:
MDA-MB-468 Cells (300,000 cells/well) in exponential growth were plated into 6-well culture plates and then treated in triplicate with or without various concentrations of PKUMDL-WL-2101. After 24 h, cells were harvested by trypsinization and centrifuged, and then fixed in 70% ice-cold ethanol, washed twice with 1×PBS, and kept at 4° C. overnight. The fixed cells were afterwards washed in 1×PBS and resuspended in 1×PBS containing 0.5% triton-x-100, 50 μg/ml Prodiumiodide (PI) and 50 μg/ml DNase-free RNase. The cell suspension was incubated in the dark for 30 min at 37° C. and analyzed by using a BD FACSCanto™ cytometer.

The subject of the next data set is MDA-MB-468 xenografts. Briefly: Mouse xenograft model, compounds injected separately. The class given is in vivo. Conditions: 20 mg/kg/day IP; for inhibitory effects on MDA-MB-468 xenografts (tumor volume): after 30 days of drug delivery, vs vehicle; for tolerability (body weight): over the course of the experiments. On the procedure:
All animal experiments were performed in compliance with guidelines of the Animal Welfare Act and the guide for the care and use of laboratory animals following protocols approved by the Institutional Animals Care and Use Committee (IACUC). […] The tumor volumes were measured every two days and calculated by using the following formula width^2 (mm)×length (mm)×0.5.

Consider `CCNC(=S)N/N=C/c1ccc(-c2ccc([N+](=O)[O-])cc2)o1` [PKUMDL-WL-2228, (E)-N-ethyl-2-((5-(4-nitrophenyl)furan-2-yl)methylene) hydrazinecarbothioamide], for which the IC50 on recombinant PHGDH amounted to 37 ± 2.8 µM.
Same read-out and setting: to `NNC(=S)N/N=C/c1ccc(-c2ccc(C(=O)O)cc2)o1` [PKUMDL-WL-2222, (E)-4-(5-((2-(hydrazinecarbonothioyl) hydrazono)methyl)furan-2-yl) benzoic acid] belongs 16.7 ± 1.6 µM.
Take `O=C(N/N=C/c1cc([N+](=O)[O-])ccc1O)c1ccc(O)cc1O` [PKUMDL-WL-2101, (E)-2,4-dihydroxy-N′-(2-hydroxy-5-nitrobenzylidene)benzohydrazide]: on recombinant PHGDH, the IC50 was 34.8 ± 3.6 µM. The EC50 is 18.3 µM in the data set on colon cancer cell DLD-1; 7.7 µM in [1]; 10.8 µM in [2]; 27.7 µM in data set [3]; 83.4 µM in data set [4]; 139 µM in data set [5]. In addition, the EC50 in data set [6] is 45.8 µM. In addition, the “effect on cell cycle” value with MDA-MB-468 Cells was “arrested the cell cycle at the G0/G1-phase in a dose-dependent manner”. Besides, the “inhibitory effects on MDA-MB-468 xenografts (tumor volume)” value with MDA-MB-468 xenografts is on record as “substantial inhibitory effects”. Also, the “tolerability (body weight)” value with MDA-MB-468 xenografts was “maintain normal body weight”.
As to `COC(=O)c1ccc(-c2ccc(/C=N/NC(=S)Nc3ccc([N+](=O)[O-])cc3)o2)cc1` [PKUMDL-WL-2212, (E)-Methyl 4-(5-((2-((4-nitrophenyl)carbamothioyl) hydrazono)methyl)furan-2-yl) benzoate], the IC50 on recombinant PHGDH amounted to 29.8 ± 9.4 µM.
On the same count and under the same terms, to `CCNC(=S)N/N=C/c1ccc(-c2ccc(O)cc2)o1` [PKUMDL-WL-2229, (E)-N-ethyl-2-((5-(4-hydroxyphenyl)furan-2-yl)methylene) hydrazinecarbothioamide] belongs 30.3 ± 4.5 µM.
Consider `CCNC(=S)N/N=C\c1ccc(-c2ccc(C(=O)O)c(Cl)c2)o1` [PKUMDL-WL-2201, (Z)-2-chloro-4-(5-((2-(ethylcarbamothioyl) hydrazono)methyl)furan-2-yl) benzoic acid], for which the IC50 on recombinant PHGDH stood at 35.7 ± 8.6 µM. In addition, the EC50 in the data set on colon cancer cell DLD-1 was 167 µM; in [1], 6.9 µM; in [2], 10 µM; in data set [3], greater than 200 µM; in data set [4] it was 125 µM; in data set [5], greater than 200 µM. In data set [6], the EC50 was 64.7 µM. Besides, the “effect on cell cycle” value with MDA-MB-468 Cells is listed as “arrested the cell cycle at the G0/G1-phase in a dose-dependent manner”. Moreover, the “inhibitory effects on MDA-MB-468 xenografts (tumor volume)” value with MDA-MB-468 xenografts is given as “substantial inhibitory effects”. Moreover, the “tolerability (body weight)” value with MDA-MB-468 xenografts is “maintain normal body weight”.
In the case of `O=C(N/N=C/c1cc([N+](=O)[O-])ccc1O)c1ccc(C(F)(F)F)cc1` [PKUMDL-WL-2128], at recombinant PHGDH, the IC50 is 36.1 ± 4.2 µM.
Still for that read-out and setting: as for `COC(=O)c1ccc(-c2ccc(/C=N/NC(=S)NN)o2)cc1` [PKUMDL-WL-2220, (E)-Methyl 4-(5-((2-(hydrazinecarbonothioyl) hydrazono)methyl)furan-2-yl) benzoate], the figure is 8.9 ± 1.8 µM; as for `CCNC(=S)N/N=C/c1ccc(-c2ccc(C(=O)O)cc2)o1` [PKUMDL-WL-2226, (E)-4-(5-((2-(ethylcarbamothioyl) hydrazono)methyl)furan-2-yl) benzoic acid], 35.5 ± 1.1 µM; as for `NNC(=S)N/N=C/c1ccc(-c2ccc(S(N)(=O)=O)cc2)o1` [PKUMDL-WL-2225, (E)-4-(5-((2-(hydrazinecarbonothioyl) hydrazono)methyl)furan-2-yl) benzenesulfonamide], 38.9 ± 1.2 µM.
